In US11925629B2, “Heterocyclic inhibitors of ERK1 and ERK2 and their use in the treatment of cancer” (Asana Biosciences, LLC, priority 2015, dated 2024) one finds IC50 data, which are given here for 21 compounds.

The subject of test [1] is HT-29 (colorectal carcinoma, B-RafV600E) cells. Put plainly: Cell proliferation (Alamar Blue) assay, HT-29. Type of test: cell-based, human. Here is the method: (§1) Cell Proliferation (Alamar Blue) Assay
(§2) HT-29 (colorectal carcinoma, B-RafV600E), HCT116 (colorectal carcinoma, K Ras G13D), A375 (melanoma, B-RafV600E) and SK-Mel2 (melanoma, NRAS Q61R) cells (obtained from ATCC, USA) were seeded (5000 cells/well) in 96-well tissue culture plate and incubated at 37° C./5% CO2 for 16-24 hours. The cells were then treated with compounds, at concentrations typically from 0.0005 to 10 uM prepared in 3-fold serial dilutions. The plates were then incubated for 72 h at 37° C./5% CO2 in a moist environment. Then Alamar Blue™ reagent (final concentration 1×) was added to each well and incubated for 1-3 h at 37° C./5% CO2. The plates were read on fluorescence reader at 540 nm excitation and 590 nm emission wavelengths. The IC50 values were subsequently determined using a sigmoidal dose-response curve (variable slope) using GraphPad Prism® 5 software.
(Alamar Blue is a resazurin reagent that responds to reducing activity.)

Test [2] concerns HCT116 (colorectal carcinoma, K Ras G13D) cells. Put plainly: Cell proliferation (Alamar Blue) assay, HCT116. It is filed as cell-based, human. Here is the method: as §1, §2
Setting [3] is: Homo sapiens, HT-29, HT29 cells.
Setting [4] is: Homo sapiens, HCT-116, HCT116 cells.

A word on the IC50: it is the concentration needed to halve the response being measured. Higher therefore signals lower potency. In test [1] (HT29 cells), `Cc1cnc(Nc2ccc(F)cc2)cc1-n1cnc(C(=O)NC(CN)c2ccccc2)c1` (single isomer, unassigned; enantiomer #1) [Example 227, N-(2-amino-1-phenylethyl)-1-(2-((4-fluorophenyl)amino)-5-methylpyridin-4-yl)-1H-imidazole-4-carboxamide, Enantiomer #1] came in with an IC50 of 0.1 to 0.25 µM.
Consider `Cc1cnc(NC2CCOCC2)nc1-n1cnc(C(=O)NC(CN)c2ccc(Cl)s2)c1` (single isomer, unassigned; enantiomer #1) [Example 290, N-(2-amino-1-(5-chlorothiophen-2-yl)ethyl)-1-(5-methyl-2-((tetrahydro-2H-pyran-4-yl)amino)pyrimidin-4-yl)-1H-imidazole-4-carboxamide (enantiomer #1)], for which the IC50 in test [2] (HCT116 cells) was ≤ 0.1 µM.
With `Cc1cnc(Nc2ccccc2Cl)nc1-n1cc(NC(=O)N[C@H](CO)c2cccc(Cl)c2)cn1` [Cmpd 2, (S)-1-(1-(3-chlorophenyl)-2-hydroxyethyl)-3-(1-(2-((2-chloro-phenyl)amino)-5-methylpyrimidin-4-yl)-1H-pyrazol-4-yl)urea], the IC50 in test [1] (setting [3]) and in test [2] (setting [4]) was > 2.5 µM each time.
`O=C(Nc1cnn(-c2ccnc(Nc3ccc(F)cc3Cl)n2)c1)N[C@H](CO)c1cccc(Cl)c1` [Cmpd 20, (S)-1-(1-(2-((2-chloro-4-fluoro-phenyl)amino)pyrimidin-4-yl)-1H-pyrazol-4-yl)-3-(1-(3-chloro-phenyl)-2-hydroxyethyl) urea]: the IC50 in test [2] (setting [4]) was > 2.5 µM.
Regarding `Cc1cnc(NC2CC2)nc1-n1cc(C(=O)N[C@H](CO)c2cccc(Cl)c2)cn1` [Cmpd 39, (S)-N-(1-(3-chlorophenyl)-2-hydroxy-ethyl)-1-(2-(cyclopropyl-amino)-5-methyl-pyrimidin-4-yl)-1H-pyrazole-4-carboxamide], the IC50 in test [1] (setting [3]) and in test [2] (setting [4]) was > 2.5 µM in each case.
In the case of `Cc1cnc(Nc2ccc3c(c2)OCO3)nc1-n1cc(NC(=O)N[C@H](CO)c2ccccc2)cn1` [Cmpd 55, (S)-1-(1-(2-(benzo[d][1,3]dioxol-5-ylamino)-5-methyl-pyrimidin-4-yl)-1H-pyrazol-4-yl)-3-(2-hydroxy-1-phenylethyl) urea], the IC50 in test [1] (setting [3]) and in test [2] (setting [4]) was > 2.5 µM throughout.
For the compound `O=C(Nc1cnn(-c2ccnc(Nc3ccccc3Cl)n2)c1)N[C@H](CO)c1cccc(Cl)c1` [Example 1, (S)-1-(1-(3-chlorophenyl)-2-hydroxyethyl)-3-(1-(2-((2-chloro-phenyl)amino)pyrimidin-4-yl)-1H-pyrazol-4-yl) urea], in test [2] (setting [4]), the IC50 is > 2.5 µM.
In the case of `Cc1cnc(NC2CC2)nc1-n1cc(NC(=O)N[C@H](CO)c2cccc(Cl)c2)cn1` [Example 3, (S)-1-(1-(3-chlorophenyl)-2-hydroxyethyl)-3-(1-(2-(cyclo-propyl-amino)-5-methyl-pyrimidin-4-yl)-1H-pyrazol-4-yl)urea], the half-inhibitory concentration (IC50) in test [1] (setting [3]) and in test [2] (setting [4]) was > 2.5 µM each time.
For `O=C(Nc1cnn(-c2ccnc(Nc3ccccc3Cl)n2)c1)N[C@@H](CO)c1ccccc1` [Example 4, (R)-1-(1-(2-((2-chlorophenyl)amino)pyrimidin-4-yl)-1H-pyrazol-4-yl)-3-(2-hydroxy-1-phenylethyl) urea], the IC50 in test [1] (setting [3]) and in test [2] (setting [4]) was > 2.5 µM each time.
`O=C(Nc1cnn(-c2ccnc(NC3CC3)n2)c1)N[C@H](CO)c1cccc(Cl)c1` [Example 6, (S)-1-(1-(3-chlorophenyl)-2-hydroxyethyl)-3-(1-(2-(cyclo-propyl-amino)pyrimidin-4-yl)-1H-pyrazol-4-yl)urea]: the IC50 in test [1] (setting [3]) and in test [2] (setting [4]) was > 2.5 µM each time.
In the case of `O=C(Nc1cnn(-c2ccnc(Nc3ccccc3Cl)n2)c1)N[C@H](CO)c1ccccc1` [Example 7, (S)-1-(1-(2-((2-chlorophenyl)amino)pyrimidin-4-yl)-1H-pyrazol-4-yl)-3-(2-hydroxy-1-phenylethyl) urea], the IC50 in test [1] (setting [3]) and in test [2] (setting [4]) was > 2.5 µM throughout.
Turning to `O=C(Nc1cnn(-c2ccnc(N[C@H]3CC[C@H](O)CC3)n2)c1)N[C@H](CO)c1cccc(Cl)c1` [Example 14, 1-((S)-1-(3-chlorophenyl)-2-hydroxy-ethyl)-3-(1-(2-((trans-4-hydroxycyclo-hexyl)amino)pyrimidin-4-yl)-1H-pyrazol-4-yl)urea], in test [2] (setting [4]), the IC50 was > 2.5 µM.
For the compound `COc1cc(N2CCN(C(C)=O)CC2)ccc1Nc1nccc(-n2cc(NC(=O)N[C@H](CO)c3cccc(Cl)c3)cn2)n1` [Example 15, (S)-1-(1-(2-((4-(4-acetyl-piperazin-1-yl)-2-methoxy-phenyl)amino)pyrimidin-4-yl)-1H-pyrazol-4-yl)-3-(1-(3-chloro-phenyl)-2-hydroxyethyl) urea], the half-inhibitory concentration (IC50) in test [2] (setting [4]) is > 2.5 µM.
On to `O=C(Nc1cnn(-c2ccnc(NC3CC3)n2)c1)NC(CO)c1cccc(Cl)c1` (stereo not drawn) [Example 16, 1-(1-(3-chlorophenyl)-2-hydroxy-ethyl)-3-(1-(2-(cyclo-propylamino)pyrimidin-4-yl)-1H-pyrazol-4-yl)urea], for which the IC50 in test [2] (setting [4]) is > 2.5 µM.
Take `CN1CCN(c2ccc(Nc3nccc(-n4cc(NC(=O)N[C@H](CO)c5cccc(Cl)c5)cn4)n3)cc2)CC1` [Example 22, (S)-1-(1-(3-chlorophenyl)-2-hydroxy-ethyl)-3-(1-(2-((4-(4-methyl-piperazin-1-yl)-phenyl)amino)pyrimidin-4-yl)-1H-pyrazol-4-yl)urea]: the IC50 in test [1] (setting [3]) and in test [2] (setting [4]) was > 2.5 µM each time.
Take `O=C(Nc1cnn(-c2ccnc(Nc3cccnc3)n2)c1)N[C@H](CO)c1cccc(Cl)c1` [Example 24, (S)-1-(1-(3-chlorophenyl)-2-hydroxy-ethyl)-3-(1-(2-(pyridin-3-yl-amino)pyrimidin-4-yl)-1H-pyrazol-4-yl)urea]: the IC50 in test [1] (setting [3]) and in test [2] (setting [4]) was > 2.5 µM in each case.
Regarding `O=C(Nc1cnn(-c2ccnc(Nc3ccccc3)c2)c1)NC(CO)c1cccc(Cl)c1` (stereo not drawn) [Example 33, 1-(1-(3-chlorophenyl)-2-hydroxy-ethyl)-3-(1-(2-(phenyl-amino)-pyridin-4-yl)-1H-pyrazol-4-yl)urea], the IC50 in test [2] (setting [4]) was > 2.5 µM.
Same read-out and setting: in the case of `Cc1cnc(Nc2ccc(F)cc2Cl)nc1-n1cc(C(=O)N[C@H](CO)c2cccc(Cl)c2)cn1` [Example 35, (S)-1-(2-((2-chloro-4-fluoro-phenyl)amino)-5-methyl-pyrimidin-4-yl)-N-(1-(3-chloro-phenyl)-2-hydroxy-ethyl)-1H-pyrazole-4-carboxamide] it was > 2.5 µM; in that of `Cc1cnc(Nc2ccc(F)cc2Cl)nc1-n1cc(NC(=O)NC(CO)c2cccc(Cl)c2)cn1` (stereo not drawn) [Example 36, 1-(1-(2-((2-chloro-4-fluorophenyl)-amino)-5-methyl-pyrimidin-4-yl)-1H-pyrazol-4-yl)-3-(1-(3-chlorophenyl)-2-hydroxy-ethyl)urea], > 2.5 µM; in that of `O=C(N[C@H](CO)c1cccc(Cl)c1)c1ccn(-c2ccnc(Nc3ccc(F)cc3Cl)n2)c1` [Example 112, (S)-1-(2-((2-chloro-4-fluorophenyl)-amino)pyrimidin-4-yl)-N-(1-(3-chlorophenyl)-2-hydroxy-ethyl)-1H-pyrrole-3-carboxamide], > 2.5 µM.
`Cc1cnc(NC2CCOCC2)nc1-n1cnc(C(=O)NC(CN)c2ccc(Cl)s2)c1` (stereo not drawn) [Example 274, N-(2-amino-1-(5-chlorothiophen-2-yl)ethyl)-1-(5-methyl-2-((tetrahydro-2H-pyran-4-yl)amino)pyrimidin-4-yl)-1H-imidazole-4-carboxamide]: the IC50 in test [2] (HCT116 cells) is ≤ 0.1 µM.
